In ChEMBL document CHEMBL1136392, “Anilinopyrimidines as novel antituberculosis agents” (Bioorg Med Chem Lett, 2003):
≈ marks a conversion by molar mass, not a printed value. Calls of active or inactive are those of the source. The calls are words filed in the database; no cut-off is given here.

Tests used:
[1] = tested on: Mycobacterium tuberculosis; experiment: Minimum inhibitory concentration against Mycobacterium tuberculosis using microplate alamar blue assay; assay type: functional
Plasmodium falciparum = experiment: In vitro activity as 50% reduction in parasite growth against Plasmodium falciparum by [3H]hypoxanthine uptake; assay type: functional, organism-based
[2] = tested on: Mycobacterium tuberculosis; experiment: Minimum inhibitory concentration against Mycobacterium tuberculosis using microplate alamar blue assay; Inactive; assay type: functional, organism-based
Breast carcinoma cell = experiment: Cytotoxic concentration of compound against human breast cancer cells; assay type: functional, cell-based
[3] = Cytotoxic concentration of compound against human epidermal carcinoma (KB) cell line; assay type: functional
[4] = Cytotoxic concentration of compound against human small cell lung cancer (NCI-187); assay type: functional
[5] = tested on: Mycobacterium tuberculosis; experiment: Minimum inhibitory concentration against (MDR-TB) Mycobacterium tuberculosis using microplate alamar blue assay; assay type: functional

Row | SMILES | MIC [1] | further results
1 | CCCN(CC1CC1)c1nc(C)cc(Nc2ccccc2)n1 | 12.5 µg/mL (≈ 42.2 µM) | –
2 | C[C@@H]1CC[C@H]2[C@@H](C)C(=O)O[C@@H]3O[C@@]4(C)CC[C@@H]1[C@]32OO4 [ARTEMISININ] | – | IC50 (Plasmodium falciparum): 0.001 µg/mL (≈ 0.00354 µM)
3 | Cc1cc(C)c(Nc2cc(C)nc(Cl)n2)c(C)c1 | – | MIC [2]: inactive
4 | Cc1c2ccncc2c(C)c2c1[nH]c1ccccc12 [ELLIPTECINE] | – | IC50 (Breast carcinoma cell): 0.1 µg/mL (≈ 0.406 µM); IC50 [3]: 0.1 µg/mL (≈ 0.406 µM); IC50 [4]: 0.1 µg/mL (≈ 0.406 µM)
5 | CCN(CC)c1nc(C)cc(N(C)c2ccccc2)n1 | 50 µg/mL (≈ 185 µM) | –
6 | NC[C@H]1O[C@H](O[C@H]2[C@H](O)[C@@H](O[C@H]3O[C@H](CO)[C@@H](O)[C@H](N)[C@H]3O)[C@H](N)C[C@@H]2N)[C@H](O)[C@@H](O)[C@@H]1O.O=S(=O)(O)O [KANAMYCIN SULFATE] | 5 µg/mL | –
7 | Cc1cc(Nc2ccccc2)nc(Cl)n1 | 50 µg/mL (≈ 228 µM) | –
8 | CCN(CC)c1nc(C)cc(Nc2ccccc2)n1 | 25 µg/mL (≈ 97.5 µM) | –
9 | NC(=O)c1cnccn1 [PYRAZINAMIDE] | 20 µg/mL (≈ 162 µM) | –
10 | CCCN(CC1CC1)c1nc(C)cc(N(C)c2ccccc2)n1 | 12.5 µg/mL (≈ 40.3 µM) | –
11 | CCCN(CC1CC1)c1nc(C)cc(N(C)c2c(C)cc(C)cc2C)n1 | 3.12 µg/mL (≈ 8.85 µM) | –
12 | CC(C)/N=c1\cc2n(-c3ccc(Cl)cc3)c3ccccc3nc-2cc1Nc1ccc(Cl)cc1 [CLOFAZIMINE] | – | MIC [5]: 2 µg/mL (≈ 4.22 µM)
13 | NNC(=O)c1ccncc1 [ISONIAZID] | 0.04 µg/mL (≈ 0.292 µM) | –
